Test results published in patent US9409866B2, “Pyridine-2-amides useful as CB2 agonists” (Hoffmann-La Roche Inc., priority 2012, dated 2016).

Columns and labels:
human CB2 receptors = human CB2 receptors (Homo sapiens (Human), UniProt P34972); assay: functional cAMP assay, CHO cells expressing human CB2; format: cell-based; conditions: read-out: Human CB2 EC50
Outline: (§1)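 Cells are seeded 17-24 h ahead, then preincubated in Krebs Ringer bicarbonate buffer with 1 mM IBMX at 30 °C. Compounds act for 30 min at 30 °C, after which lysis and cAMP detection reagents are added for 2 h at room temperature. Time-resolved FRET gives cAMP content, and EC50 values are fitted from it.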

human CB1 receptors = human CB1 receptors (Homo sapiens (Human), UniProt P21554); assay: functional cAMP assay, CHO cells expressing human CB1; format: cell-based; conditions: functional cAMP assay, CHO cells expressing human CB1; read-out: Human CB1 EC50
Outline: as §1

Sequence of human CB2 receptors (P34972 whole entry): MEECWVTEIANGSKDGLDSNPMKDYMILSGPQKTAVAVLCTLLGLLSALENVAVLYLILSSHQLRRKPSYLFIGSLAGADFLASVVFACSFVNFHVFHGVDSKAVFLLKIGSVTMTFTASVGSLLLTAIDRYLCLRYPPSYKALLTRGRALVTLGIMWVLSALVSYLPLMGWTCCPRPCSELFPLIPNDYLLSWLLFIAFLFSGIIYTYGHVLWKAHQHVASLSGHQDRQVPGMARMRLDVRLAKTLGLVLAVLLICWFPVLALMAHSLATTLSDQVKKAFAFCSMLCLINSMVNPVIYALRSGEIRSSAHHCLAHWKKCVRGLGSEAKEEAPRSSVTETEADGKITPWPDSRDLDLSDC
Sequence of human CB1 receptors (P21554 whole entry): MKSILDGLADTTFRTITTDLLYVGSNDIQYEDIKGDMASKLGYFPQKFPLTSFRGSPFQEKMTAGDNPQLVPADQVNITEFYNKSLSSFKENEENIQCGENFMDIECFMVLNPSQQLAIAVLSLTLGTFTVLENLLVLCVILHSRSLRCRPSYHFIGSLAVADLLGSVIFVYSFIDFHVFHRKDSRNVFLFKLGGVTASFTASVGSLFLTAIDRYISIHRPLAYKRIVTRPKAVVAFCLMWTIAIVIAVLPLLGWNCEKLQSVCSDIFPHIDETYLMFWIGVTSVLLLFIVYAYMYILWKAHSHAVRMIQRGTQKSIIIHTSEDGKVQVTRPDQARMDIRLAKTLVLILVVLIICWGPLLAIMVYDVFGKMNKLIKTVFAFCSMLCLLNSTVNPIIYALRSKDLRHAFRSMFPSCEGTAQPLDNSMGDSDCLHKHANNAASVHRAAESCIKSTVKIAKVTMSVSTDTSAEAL

SMILES | EC50 (human CB2 receptors) | EC50 (human CB1 receptors)
Cc1nc(C(C)(NC(=O)c2cc(O[C@H](C)C(F)(F)F)c(C3CC3)cn2)C2CC2)no1 (single isomer, unassigned; epimer b) [Example 73] | 0.00025 µM | 0.017 µM
COC(=O)C(C)(C)NC(=O)c1cc(I)c(Cl)cn1 [Example 1, 2-[(5-Chloro-4-iodo-pyridine-2-carbonyl)-amino]-2-methyl-propionic acid methyl ester] | 0.0356 µM | > 10 µM
CC(C)(CO)NC(=O)c1cc(-c2cccc(Cl)c2)c(Cl)cn1 [Example 2, 5-Chloro-4-(3-chlorophenyl)-pyridine-2-carboxylic acid (2-hydroxy-1,1-dimethyl-ethyl)-amide] | 0.0963 µM | > 10 µM
CC(C)C[C@H](NC(=O)c1cc(-c2cccc(Cl)c2)c(Cl)cn1)C(N)=O [Example 3, 5-Chloro-4-(3-chloro-phenyl)-pyridine-2-carboxylic acid ((S)-1-carbamoyl-3-methyl-butyl)-amide] | 0.466 µM | > 10 µM
NC(=O)[C@H](CC1CC1)NC(=O)c1cc(OCC2CC2)c(Cl)cn1 [Example 4, 5-Chloro-4-cyclopropylmethoxy-pyridine-2-carboxylic acid ((S)-1-carbamoyl-2-cyclopropyl-ethyl)-amide] | 0.115 µM | > 10 µM
O=C(NCC1(O)CCCCC1)c1cc(OCC2CC2)c(Cl)cn1 [Example 5, 5-Chloro-4-cyclopropylmethoxy-pyridine-2-carboxylic acid (1-hydroxy-cyclohexylmethyl)-amide] | 0.107 µM | > 10 µM
O=C(NC1(CO)CCCC1)c1cc(OCC2CC2)c(Cl)cn1 [Example 6, 5-Chloro-4-cyclopropylmethoxy-pyridine-2-carboxylic acid (1-hydroxymethyl-cyclopentyl)-amide] | 0.0524 µM | > 10 µM
CC(C)C[C@@H](CO)NC(=O)c1cc(OCC2CC2)c(Cl)cn1 [Example 7, 5-Chloro-4-cyclopropylmethoxy-pyridine-2-carboxylic acid ((S)-1-hydroxymethyl-3-methyl-butyl)-amide] | 0.0523 µM | > 10 µM
CC(C)(C#N)NC(=O)c1cc(OCC2CC2)c(Cl)cn1 [Example 8, 5-Chloro-4-cyclopropylmethoxy-pyridine-2-carboxylic acid (cyano-dimethyl-methyl)-amide] | 0.159 µM | > 10 µM
CC(C)C[C@H](NC(=O)c1cc(OCC2CC2)c(Br)cn1)C(N)=O [Example 9, 5-Bromo-4-cyclopropylmethoxy-pyridine-2-carboxylic acid ((S)-1-carbamoyl-3-methyl-butyl)-amide] | 0.0329 µM | > 10 µM
CC(C)[C@@](C)(CO)NC(=O)c1cc(OCC2CC2)c(Cl)cn1 [Example 10, 5-Chloro-4-cyclopropylmethoxy-pyridine-2-carboxylic acid ((S)-1-hydroxymethyl-1,2-dimethyl-propyl)-amide] | 0.0119 µM | > 10 µM
CC(C)[C@H](CO)NC(=O)c1cc(OCC2CC2)c(Cl)cn1 [Example 11, 5-Chloro-4-cyclopropylmethoxy-pyridine-2-carboxylic acid ((R)-1-hydroxymethyl-2-methyl-propyl)-amide] | 0.0554 µM | > 10 µM
CC(C)[C@](C)(CO)NC(=O)c1cc(OCC2CCC2)c(Cl)cn1 [Example 12, 5-Chloro-4-cyclobutylmethoxy-pyridine-2-carboxylic acid ((R)-1-hydroxymethyl-1,2-dimethyl-propyl)-amide] | 0.0092 µM | > 10 µM
CCC[C@H](CO)NC(=O)c1cc(OCC2CC2)c(Cl)cn1 [Example 13, 5-Chloro-4-cyclopropylmethoxy-pyridine-2-carboxylic acid ((R)-1-hydroxymethyl-butyl)-amide] | 0.146 µM | > 10 µM
CC(C)[C@](C)(CO)NC(=O)c1cc(OCC2CC2)c(Cl)cn1 [Example 14, 5-Chloro-4-cyclopropylmethoxy-pyridine-2-carboxylic acid ((R)-1-hydroxymethyl-1,2-dimethyl-propyl)-amide] | 0.0128 µM | 6.98 µM
CC(C)[C@](C)(CO)NC(=O)c1cc(Cc2ccc(F)cc2)c(Cl)cn1 [Example 15, 5-Chloro-4-(4-fluoro-benzyl)-pyridine-2-carboxylic acid ((R)-1-hydroxymethyl-1,2-dimethyl-propyl)-amide] | 0.0058 µM | > 10 µM
O=C(N[C@H](c1ccccn1)C(F)(F)F)c1cc(OCC2CC2)c(Cl)cn1 [Example 16, (+)-5-Chloro-4-cyclopropylmethoxy-pyridine-2-carboxylic acid (2,2,2-trifluoro-1-pyridin-2-yl-ethyl)-amide] | 0.0031 µM | 0.815 µM
CC(C)(CO)CNC(=O)c1cc(OCC2CC2)c(Cl)cn1 [Example 17, 5-Chloro-4-cyclopropylmethoxy-pyridine-2-carboxylic acid (3-hydroxy-2,2-dimethyl-propyl)-amide] | 0.0473 µM | > 10 µM
CC(C)C(CCO)NC(=O)c1cc(OCC2CC2)c(Cl)cn1 (stereo not shown) [Example 18, 5-Chloro-4-cyclopropylmethoxy-pyridine-2-carboxylic acid [1-(2-hydroxy-ethyl)-2-methyl-propyl]-amide] | 0.149 µM | > 10 µM
O=C(NC(CCO)C1CC1)c1cc(OCC2CC2)c(Cl)cn1 (stereo not shown) [Example 19, 5-Chloro-4-cyclopropylmethoxy-pyridine-2-carboxylic acid (1-cyclopropyl-3-hydroxy-propyl)-amide] | 0.0615 µM | > 10 µM
O=C(NCC1(CO)CCCC1)c1cc(OCC2CC2)c(Cl)cn1 [Example 20, 5-Chloro-4-cyclopropylmethoxy-pyridine-2-carboxylic acid (1-hydroxymethyl-cyclopentylmethyl)-amide] | 0.0232 µM | > 10 µM
CCC(CC)(CO)NC(=O)c1cc(OCC2CC2)c(Cl)cn1 [Example 21, 5-Chloro-4-cyclopropylmethoxy-pyridine-2-carboxylic acid (1-ethyl-1-hydroxymethyl-propyl)-amide] | 0.0404 µM | > 10 µM
O=C(N[C@@H](c1cccnc1)C(F)(F)F)c1cc(OCC2CC2)c(Cl)cn1 [Example 22, 5-Chloro-4-cyclopropylmethoxy-pyridine-2-carboxylic acid ((S)-2,2,2-trifluoro-1-pyridin-3-yl-ethyl)-amide] | 0.0057 µM | > 10 µM
CNC(=O)[C@@H](NC(=O)c1cc(OC2COC2)c(Cl)cn1)C(C)(C)C [Example 23, 5-Chloro-4-(oxetan-3-yloxy)-pyridine-2-carboxylic acid ((S)-2,2-dimethyl-1-methylcarbamoyl-propyl)-amide] | 0.205 µM | > 10 µM
CNC(=O)[C@@H](NC(=O)c1cc(OCC(F)(F)F)c(Cl)cn1)C(C)(C)C [Example 24, 5-Chloro-4-(2,2,2-trifluoro-ethoxy)-pyridine-2-carboxylic acid ((S)-2,2-dimethyl-1-methylcarbamoyl-propyl)-amide] | 0.0098 µM | > 10 µM
CC(C)CC(C)(CO)NC(=O)c1cc(OCC2CC2)c(Cl)cn1 (stereo not shown) [Example 25, 5-Chloro-4-cyclopropylmethoxy-pyridine-2-carboxylic acid (1-hydroxymethyl-1,3-dimethyl-butyl)-amide] | 0.0119 µM | > 10 µM
